Reference: PMC2074382 (British Journal of Cancer, 1996)
Several values for one entry are separate records, joined by “and”; a condition that tells them apart may be missing. Equal entries are not always repeated. Structures can show the parent of a compound that is named as a salt.

Assay: Pharmacokinetics (lactone form, HPLC, non-compartmental) in plasma and urine, days 1 and 4 of first course
Details: for fe, fraction of the drug excreted unchanged / Clr, renal clearance: Table VI
Source text: British Journal of Cancer (1996) 73, 744-750 O (C? 1996 Stockton Press All rights reserved 0007-0920/96 $12.00 Phase I and pharmacological study of the new topoisomerase I inhibitor G1147211, using a daily x 5 intravenous administration CJH Gerrits', GJ Creemers', JHM Schellens', P Wissel2, AS Th Planting', R Kunka2, K Selinger2, M de Boer-Dennert', Y Marijnen3, M Harteveld' and J Verweijl 'Department of Medical Oncology, Rotterdam Cancer Institute, Rotterdam, The Netherlands; 2Glaxo Wellcome Inc, Department of Clinical Pharmacology, NC, USA; 3Glaxo Wellcome Inc, Department of Clinical Research, Zeist, The Netherlands. Summary Topoisomerase I inhibitors are interesting anti-cancer agents with a novel mechanism of action. […] In subsequent patient cohorts the dose was escalated from 0.3 to 1.5 mg m-2 day-'. Pharmacokinetics analysis was performed on days 1 and 4 of the first course using a validated high- performance liquid chromatographic assay and non-compartmental methods. […] Its further development was stopped because of unpredictable and severe myelosuppression, gastrointestinal toxicity and haemorrhagic cystitis. In the late 1980s two discoveries brought about a renewal of interest in CPT; firstly, topoisomerase I was identified as the single cellular target of CPT (Hsiang et al., 1985; Hsiang and Liu, 1988) and, secondly, an overexpression of topoisomerase I was found in various tumour cell lines but not in normal tissues (Giovanella et al., 1989; Hirabayaski et al., 1992; Potmesil et al., 1988). Topoisomerase I is a nuclear enzyme that resolves topological problems of the torsionally strained (supercoiled) DNA (Slichenmyer et al., 1993). This is achieved by forming a covalent adduct between topoisome- rase I and the DNA, termed the cleavable complex. This catalytic intermediate creates single-strand DNA breaks, allowing the DNA molecule to rotate around the intact DNA strand at the cleavage site, leading to a relaxation of the DNA molecule and in this way replication, transcription and other DNA functions can proceed. These enzyme- bridged breaks are then resealed by topoisomerase I. CPT stabilises the cleavable complexes, thereby preventing resealing of single-strand DNA breaks in the presence of the drug (Covey et al., 1989; D'Arpa and Liu, 1989; Eng et al., 1988). Cytotoxicity is specific to the S-phase of the cell cycle because the double-strand breaks that occur during this phase are more difficult to repair in the presence of the drug (Horwitz and Horwitz, 1973). […] Other eligibility criteria included: (1) age>, 18 years; (2) an Eastern Cooperative Oncology Group (ECOG) performance status <2; (3) a predicted life expectancy of at least 3 months; (4) no previous anti-cancer therapy for at least 3 weeks (6 weeks for previous nitro- soureas or mitomycin C); (5) adequate haemato- poietic (WBC) 3 x 109 -', ANC > 1.5 x 109 1-' and platelets 100 x 10 1- 1), hepatic (bilirubin within normal limits, AST, ALT and/or alkaline phosphatase < 2.0 x normal), and renal (serum creatinine < 130 imol 1-') functions. All patients gave written informed consent.

[1] = 1.2 mg m-2, day 1, mean of dose level
[2] = 1.2 mg m-2, day 4, individual patients 7-12 in order
[3] = 1.2 mg m-2, day 4, mean of dose level
[4] = 1.5 mg m-2, day 1, individual patients 13, 15-18 in order
[5] = 1.5 mg m-2, day 1, individual patients 13-18 in order
[6] = 1.5 mg m-2, day 1, mean of dose level
[7] = 1.5 mg m-2, day 4, individual patients 13-18 in order
[8] = 1.5 mg m-2, day 4, mean of dose level
[9] = day 4, individual patients 1-3, 5-12, 16-18 in order

Structure (SMILES): CC[C@@]1(O)C(=O)OCc2c1cc1n(c2=O)Cc2c-1nc1cc3c(cc1c2CN1CCN(C)CC1)OCCO3 [GI147211, [7 - (methylpiperazinomethylene) - 10,11 - ethylene-dioxy-20(S)] camptothecin dihydrochloride]
- Cmax, mean [1]: 14.98 ng/mL
- MRT, mean [1]: 3.47 h
- Vdss, mean [1]: 203 l m-2
- t1/2, mean [1]: 3.45 h
- tmax, mean [1]: 0.39 h
- AUCinf [2]: 20.59 ng·h/mL and 37.83 ng·h/mL and 21.10 ng·h/mL and 14.84 ng·h/mL and 26.62 ng·h/mL and 16.96 ng·h/mL
- Clearance, total plasma clearance [2]: 971 ml min-1 m-2 and 529 ml min-1 m-2 and 948 ml min-1 m-2 and 1348 ml min-1 m-2 and 802 ml min-1 m-2 and 1179 ml min-1 m-2
- Cmax [2]: 18.66 ng/mL and 20.03 ng/mL and 16.21 ng/mL and 9.62 ng/mL and 12.74 ng/mL and 11.63 ng/mL
- MRT [2]: 3.06 h and 5.62 h and 3.47 h and 3.96 h and 7.06 h and 4.44 h
- Vdss [2]: 163 l m-2 and 167 l m-2 and 182 l m-2 and 299 l m-2 and 307 l m-2 and 291 l m-2
- t1/2, elimination half-life [2]: 3.02 h and 4.07 h and 2.70 h and 2.20 h and 6.99 h and 4.99 h
- tmax [2]: 0.25 h and 0.42 h (5×)
- AUCinf, mean [3]: 22.99 ng·h/mL
- Clearance, mean [3]: 963 ml min-1 m-2
- Cmax, mean [3]: 14.82 ng/mL
- MRT, mean [3]: 4.60 h
- Vdss, mean [3]: 235 l m-2
- t1/2, mean [3]: 3.99 h
- tmax, mean [3]: 0.39 h
- AUCinf [4]: 24.66 ng·h/mL and 24.39 ng·h/mL and 23.32 ng·h/mL and 22.64 ng·h/mL and 28.37 ng·h/mL
- Clearance, total plasma clearance [4]: 1014 ml min-1 m-2 and 1025 ml min-1 m-2 and 1072 ml min-1 m-2 and 1104 ml min-1 m-2 and 881 ml min-1 m-2
- MRT [4]: 5.11 h and 3.57 h and 3.32 h and 3.65 h and 3.78 h
- Vdss [4]: 296 l m-2 and 204 l m-2 and 197 l m-2 and 225 l m-2 and 186 l m-2
- t1/2, elimination half-life [4]: 4.98 h and 4.62 h and 4.37 h and 4.61 h and 4.42 h
- Cmax [5]: 15.08 ng/mL and 27.48 ng/mL and 19.21 ng/mL and 19.53 ng/mL and 18.91 ng/mL and 15.90 ng/mL
- tmax [5]: 0.25 h (3×) and 0.42 h (2×) and 0.75 h
- AUCinf, mean [6]: 24.68 ng·h/mL
- Clearance, mean [6]: 1019 ml min-1 m-2
- Cmax, mean [6]: 19.35 ng/mL
- MRT, mean [6]: 3.89 h
- Vdss, mean [6]: 222 l m-2
- t1/2, mean [6]: 4.60 h
- tmax, mean [6]: 0.39 h
- AUCinf [7]: 26.92 ng·h/mL and 29.51 ng·h/mL and 30.85 ng·h/mL and 34.51 ng·h/mL and 24.85 ng·h/mL and 52.70 ng·h/mL
- Clearance, total plasma clearance [7]: 929 ml min-1 m-2 and 847 ml min-1 m-2 and 810 ml min-1 m-2 and 724 ml min-1 m-2 and 1006 ml min-1 m-2 and 474 ml min-1 m-2
- Cmax [7]: 20.02 ng/mL and 23.81 ng/mL and 25.41 ng/mL and 32.19 ng/mL and 21.18 ng/mL and 28.25 ng/mL
- MRT [7]: 5.06 h and 2.56 h and 3.04 h and 4.47 h and 5.75 h and 4.74 h
- Vdss [7]: 261 l m-2 and 117 l m-2 and 144 l m-2 and 178 l m-2 and 319 l m-2 and 126 l m-2
- t1/2, elimination half-life [7]: 4.95 h and 3.44 h and 4.35 h and 5.62 h and 5.82 h and 4.43 h
- tmax [7]: 0.42 h (4×) and 0.25 h (2×)
- AUCinf, mean [8]: 33.22 ng·h/mL
- Clearance, mean [8]: 798 ml min-1 m-2
- Cmax, mean [8]: 25.14 ng/mL
- MRT, mean [8]: 4.27 h
- Vdss, mean [8]: 191 l m-2
- t1/2, mean [8]: 4.77 h
- tmax, mean [8]: 0.36 h
- relation of AUC to the dose (0.3-1.5 mg m-2, Figure 3 day 4 of course 1): linearly related to the dose
- terminal half-life (abstract, all patients): 3.7 ± 1.2 h
- total plasma clearance (abstract, all patients): 999 ± 184 mL/min
- total plasma clearance, range (abstract, all patients): 640 to 1329 mL/min
- volume of distribution (abstract, all patients): 190+/-461 m-2
- fraction of the drug excreted unchanged in the urine (fe) (day 1): 0.14 ± 0.07
- renal clearance (day 1): 140+74 ml min-1 m-2
- Clr, mean (day 1, Table VI): 251 ml min-1 and 140 ml min-1 m-2
- fe, mean (day 1, Table VI): 0.143
- Total plasma clearance (mean+s.d.) (day 1, all dose levels): 1014+ 177.0 ml min-1 m-2
- Vdss (mean+s.d.) (day 1, all dose levels): 193+ 45.9 l m-2
- mean residence time (MRT) (mean+s.d.) (day 1, all dose levels): 3.53+0.93 h
- t1/2 (mean+s.d.) (day 1, all dose levels): 3.54+0.99 h
- fe, fraction of the drug excreted unchanged (day 1, individual patients 1-12, 14, 15 in order): 0.114 and 0.081 and 0.212 and 0.115 and 0.156 and 0.149 and 0.106 and 0.101 and 0.088 and 0.085 and 0.116 and 0.347 and 0.191 and 0.135
- Clr, renal clearance (day 1, individual patients 1-12, 15 in order): 232 ml min-1 and 116 ml min-1 m-2 and 184 ml min-1 and 101 ml min-1 m-2 (2×) and 333 ml min-1 and 222 ml min-1 m-2 and 231 ml min-1 and 115 ml min-1 m-2 and 161 ml min-1 and 194 ml min-1 and 107 ml min-1 m-2 (2×) and 201 ml min-1 and 122 ml min-1 m-2 and 151 ml min-1 and 84 ml min-1 m-2 and 203 ml min-1 and 226 ml min-1 and 113 ml min-1 m-2 and 208 ml min-1 and 119 ml min-1 m-2 and 663 ml min-1 and 358 ml min-1 m-2 and 280 ml min-1 and 150 ml min-1 m-2
- Clr, mean (day 4, Table VI): 244 ml min-1 and 138 ml min-1 m-2
- Clr, renal clearance [9]: 175 ml min-1 and 88 ml min-1 m-2 and 128 ml min-1 and 70 ml min-1 m-2 and 430 ml min-1 and 287 ml min-1 m-2 and 192 ml min-1 and 120 ml min-1 m-2 and 225 ml min-1 and 123 ml min-1 m-2 and 196 ml min-1 and 119 ml min-1 m-2 and 212 ml min-1 and 118 ml min-1 m-2 and 241 ml min-1 and 127 ml min-1 m-2 and 344 ml min-1 and 172 ml min-1 m-2 and 314 ml min-1 and 179 ml min-1 m-2 and 459 ml min-1 and 248 ml min-1 m-2 and 218 ml min-1 and 128 ml min-1 m-2 and 182 ml min-1 and 91 ml min-1 m-2 and 101 ml min-1 and 59 ml min-1 m-2
- fe, fraction of the drug excreted unchanged [9]: 0.109 and 0.095 and 0.428 and 0.181 and 0.197 and 0.122 and 0.219 and 0.133 and 0.128 and 0.239 and 0.210 and 0.177 and 0.090 and 0.125
